Source: patent publication US20250346642A1, “NEW SPLICE VARIANT ISOFORM OF VEGF” (CENTRE NATIONAL DE LA RECHERCHE SCIENTIFIQUE (CNRS), priority 2020, published 2025)
Read-outs that look alike come from different tables or passages of the source.

How the values were obtained:
ACHN cells [1] = assay: RT-qPCR of VEGF and VEGF222/NF in ACHN cells transduced with shRNA; type: cell-based
Description: (§1) For these constructs, the C-terminal V5-tag was not in frame. To generate lentiviral shRNA plasmids, pLKO.1-TRC cloning vector, a kind gift from David Roots, has been used. pLKO.1-TRC contains a 1.9 kb stuffer released by Agel and EcoRI digestion. shRNA oligos were annealed and ligated into the Agel and EcoRI sites in place of the stuffer. The following shRNA sequences were used: shScramble: 5′-[…]-3′ (SEQ ID NO: 26); shVEGF #1: 5′-[…]-3′ (SEQ ID NO: 27) shVEGF #2: 5′-[…]-3′ (SEQ ID NO: 28); shVEGFNF #1: 5′-[…]-3′ (SEQ ID NO: 29); shVEGFNF #2: 5′-[…]-3′(SEQ ID NO: 30); shNRP1: 5′-[…]-3′(SE ID NO: 31); shNRP2: 5′-[…]-3 (SEQ ID NO: 32)′. All plasmids were verified by Sanger sequencing (Eurofins Genomics).
(§2) Lentivirus were produced by triple transfection of HEK-293T cells with a lentiviral transfer vector (pLenti6.3 for overexpression experiments and pLKO.1 for shRNA experiments), and the packaging plasmids psPAX2 and pMD2.G at a 0.3:0.3:0.1 ratio. Transfection was performed using JetPEI® reagent as recommended by the manufacturer Polyplus transfection. The viral supernatant was collected 48 hours following transfection, filtered through a 0.22 μm filter, and added to target cells.
(§3) RT-PCR and RT-qPCR analyses were carried out on human tissue mRNA (BIOCHAIN®) and on cancer cell lines. mRNAs were prepared with a Nucleospin RNA kit (Macherey-Nagel), and cDNA synthesis was performed with a Maxima First Strand CDNA Synthesis Kit for RT-qPCR, with dsDNase (Fischer scientific), according to the manufacturers' instructions.
(§4) PCR analysis was performed on Biometra thermal cycler with PrimeSTAR GXL DNA polymerase (Takara Bio). Quantitative PCR analysis was performed on Applied Biosystems StepOnePlus™ System with TB Green® premix Ex Taq™ (Tli RNase H Plus) (Takara Bio) reagents. All samples were assayed in triplicate. Relative expression levels were determined with the dCt method and normalized to the 36B4 reference gene.

786-O cells = assay: RT-qPCR of VEGF and VEGF222/NF in 786-O cells transduced with shRNA; type: cell-based
Description: as §1, §2, §3, §4

metastatic ccRCC = assay: PFS and OS of metastatic (M1) ccRCC patients treated by sunitinib, grouped by plasma VEGF222/NF; type: in vivo, human
Procedure: Informed consent was obtained from all individual participants included in the study. All patients gave written consent for the use of tumor and blood samples for research. This study was conducted in accordance with the Declaration of Helsinki. Primary tumor samples of 93 non-metastatic (M0) ccRCC patients were obtained from the Rennes and Bordeaux University Hospitals (UroCCR group, NCT03293563). For metastatic patients, the population of the study included 47 ccRCC patients from the prospective SUVEGIL (NCT00943839) and TORAVA (NCT00619268) trials and from a retrospective cohort from Pavia (Italy).
Informed consent was obtained from all individual participants included in the study. All patients gave written consent for the use of tumor and blood samples for research. This study was conducted in accordance with the Declaration of Helsinki. Primary tumor samples of 93 non-metastatic (M0) ccRCC patients were obtained from the Rennes and Bordeaux University Hospitals (UroCCR group, NCT03293563). For metastatic patients, the population of the study included 47 ccRCC patients from the prospective SUVEGIL (NCT00943839) and TORAVA (NCT00619268) trials and from a retrospective cohort from Pavia (Italy). Metastatic patients received oral sunitinib (50 mg per day) once a day for 4 weeks (on days 1 to 28), followed by 2 weeks of treatment interruption. Sunitinib was continued in the absence of disease progression or unacceptable toxicity. Blood samples were collected before the beginning of the treatment (TO). Blood samples were centrifuged (10 000 g for 10 min) and the plasmas were collected and conserved at −80° C. Plasmatic levels of VEGF and VEGF222/NF were determined by ELISA as described in the ELISA method details section. PFS and OS were calculated from patient subgroups with VEGFA or VEGF222/NF plasmatic levels that were less or greater than the third quartile value.
Statistical analysis was carried out using GraphPad Prism 8. Data were expressed as mean±SEM and were compared using an unpaired Mann-Whitney test for intergroup analysis. For patients: The Student's t-test was used to compare continuous variables and chi-square test, or Fisher's exact test (when the conditions for use of the χ2-test were not fulfilled), were used for categorical variables. DFS was defined as the time from surgery to the appearance of metastasis. PFS was defined as the time between surgery and progression, or death from any cause, censoring live patients and progression free at the last follow-up. OS was defined as the time between surgery and the date of death from any cause, censoring those alive at the last follow-up. The Kaplan-Meier method was used to produce survival curves and analyses of censored data were performed using Cox models. Significance was defined as P<0.05.
The detrimental effects of VEGF222/NF in immunodeficient mice and zebrafish models prompted us to analyze the prognostic impact of its plasmatic levels in comparison to plasmatic VEGF level on a cohort of 47 metastatic (M1) ccRCC patients treated by sunitinib. The third quartile was used as the cut-off to determine patients' groups, respectively 4500 […] for VEGF and VEGF222/NF. […] However, patients with high plasmatic levels of both VEGF222/NF and VEGF had the shortest PFS (FIG. 14). […] Whereas VEGF was not associated with a significant effect on OS, high expression of VEGF222/NF WAS synonymous of a shorter overall survival (OS) in M1 patients (FIGS. 13C,D).

VEGFR3 = target: T1, VEGFR3 (UniProt P35916 25-776, limits assumed); assay: saturation binding experiment
T1 sequence (looked up): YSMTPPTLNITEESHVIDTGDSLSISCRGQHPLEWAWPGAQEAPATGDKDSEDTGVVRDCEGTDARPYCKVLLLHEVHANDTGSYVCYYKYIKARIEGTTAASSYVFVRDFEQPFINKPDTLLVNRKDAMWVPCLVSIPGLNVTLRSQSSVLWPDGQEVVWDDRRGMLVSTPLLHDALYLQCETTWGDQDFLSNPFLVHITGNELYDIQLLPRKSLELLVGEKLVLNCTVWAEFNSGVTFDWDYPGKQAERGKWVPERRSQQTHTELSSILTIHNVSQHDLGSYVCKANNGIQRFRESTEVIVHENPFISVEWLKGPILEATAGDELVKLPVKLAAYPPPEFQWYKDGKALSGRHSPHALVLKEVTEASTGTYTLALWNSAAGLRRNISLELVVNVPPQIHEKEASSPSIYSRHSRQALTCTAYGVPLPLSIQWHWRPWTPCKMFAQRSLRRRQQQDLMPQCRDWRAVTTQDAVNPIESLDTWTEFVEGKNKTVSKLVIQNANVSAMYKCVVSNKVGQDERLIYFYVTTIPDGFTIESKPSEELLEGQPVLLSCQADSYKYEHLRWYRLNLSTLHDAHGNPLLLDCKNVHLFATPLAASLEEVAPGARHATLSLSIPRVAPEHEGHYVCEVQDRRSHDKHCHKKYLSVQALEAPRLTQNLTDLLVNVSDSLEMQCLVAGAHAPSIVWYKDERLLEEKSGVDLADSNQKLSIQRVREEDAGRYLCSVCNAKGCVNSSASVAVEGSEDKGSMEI

VEGFR1 = target: T2, VEGFR1 (UniProt P17948 27-756, limits assumed); assay: saturation binding experiment
T2 construct: also called VEGFR1/Flt1
T2 sequence (P17948 27-756 limits assumed): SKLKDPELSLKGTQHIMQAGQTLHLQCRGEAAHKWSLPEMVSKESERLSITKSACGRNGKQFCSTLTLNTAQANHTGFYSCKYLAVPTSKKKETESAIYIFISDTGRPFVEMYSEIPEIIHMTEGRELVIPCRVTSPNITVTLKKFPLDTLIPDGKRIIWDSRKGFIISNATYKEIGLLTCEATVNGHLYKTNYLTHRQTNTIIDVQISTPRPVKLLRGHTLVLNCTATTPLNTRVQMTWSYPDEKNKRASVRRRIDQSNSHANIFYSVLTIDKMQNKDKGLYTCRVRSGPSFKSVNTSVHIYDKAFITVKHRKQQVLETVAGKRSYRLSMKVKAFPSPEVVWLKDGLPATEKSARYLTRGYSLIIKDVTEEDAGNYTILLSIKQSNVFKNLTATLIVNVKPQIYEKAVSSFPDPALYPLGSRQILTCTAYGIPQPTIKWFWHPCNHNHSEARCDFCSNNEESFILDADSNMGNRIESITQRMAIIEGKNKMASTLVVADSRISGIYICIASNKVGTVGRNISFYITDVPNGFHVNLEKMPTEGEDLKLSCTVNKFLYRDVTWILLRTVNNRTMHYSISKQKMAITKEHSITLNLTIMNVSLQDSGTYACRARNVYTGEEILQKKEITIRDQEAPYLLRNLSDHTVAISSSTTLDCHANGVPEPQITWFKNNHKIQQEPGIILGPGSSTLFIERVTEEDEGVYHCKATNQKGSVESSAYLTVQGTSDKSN

VEGFR2 = target: T3, VEGFR2 (UniProt P35968 20-764, limits assumed); assay: saturation binding experiment
T3 construct: also called VEGFR2/KDR
T3 sequence (P35968 20-764 limits assumed): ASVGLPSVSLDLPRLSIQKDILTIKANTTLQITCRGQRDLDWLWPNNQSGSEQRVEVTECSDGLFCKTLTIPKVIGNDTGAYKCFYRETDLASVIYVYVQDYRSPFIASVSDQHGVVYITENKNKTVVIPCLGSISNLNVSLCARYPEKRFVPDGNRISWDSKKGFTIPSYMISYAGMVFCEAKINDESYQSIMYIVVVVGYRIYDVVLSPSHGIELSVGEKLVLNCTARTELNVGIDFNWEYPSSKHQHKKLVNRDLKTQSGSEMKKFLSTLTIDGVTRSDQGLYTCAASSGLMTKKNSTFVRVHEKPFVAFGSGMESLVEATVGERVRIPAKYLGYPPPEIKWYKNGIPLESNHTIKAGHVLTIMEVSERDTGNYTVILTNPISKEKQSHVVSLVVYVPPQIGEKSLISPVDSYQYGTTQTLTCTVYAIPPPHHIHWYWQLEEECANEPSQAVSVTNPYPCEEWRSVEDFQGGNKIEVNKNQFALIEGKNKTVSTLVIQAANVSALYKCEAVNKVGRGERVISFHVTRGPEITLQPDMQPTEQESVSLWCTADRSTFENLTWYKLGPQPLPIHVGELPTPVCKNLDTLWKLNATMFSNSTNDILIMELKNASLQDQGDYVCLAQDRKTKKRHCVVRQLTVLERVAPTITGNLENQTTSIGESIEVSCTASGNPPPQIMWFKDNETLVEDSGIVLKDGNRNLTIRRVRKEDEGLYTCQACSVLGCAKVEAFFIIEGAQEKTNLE

[2] = In vivo […] plug assay (hemoglobin content); design: species or system mice; settings: 200 ng in 200 μL MATRIGEL, two weeks
Procedure: A″) VEGF222/NF induces phosphorylation of VEGFR2 and activation of the downstream signaling pathways AKT and ERK. […] Cells were washed with PBS and lyzed with Laemmli buffer. Immuno blots were performed with the indicated antibodies. […] Cells were counted for 7 days. […] D) Wound closure was determined at 3 h, 6 h, 9 h and 12 h following treatment. E) In vitro permeability assay. […] Streptavidin-HRP was then added to the transwell for 10 minutes and TMB substrate was added in the lower compartment to assess permeability. F) In vivo permeability assay. […] After 20 minutes, ears were recovered, and the amount of Evans blue was determined by colorimetry (top panel). […] G) In vivo plug assay. […] Representative photographs of the […]® plug 15 days after implantation (bottom panel).
6-weeks old female NMRI mice (n=15) were used for this experiment. […] […]® plugs were recovered after two weeks for hemoglobin quantity analysis. Plugs hemoglobin content was assessed with the hemoglobin assay kit (Sigma Aldrich) and experiments were conducted according to the manufacturer recommendations. Results are expressed in micrograms of hemoglobin per milligram of […]®.

ACHN cells [3] = assay: Proliferation of ACHN cells overexpressing VEGF165 or VEGF222/NF; type: cell-based; settings: overexpression in ACHN cells, versus LacZ
Procedure: FIG. 6. VEGF222/NF promotes the proliferation and the survival of RCC cells. […] Cells were counted for 7 days. ***P<0.001 vs LacZ. D-E) RT-qPCR analysis of the expression of VEGF222/NF and VEGF in ACHN (D) and in 786-O (E) cells transduced with pLKO.1 expressing shVEGF165 or shVEGF222/NF. *P<0.05. **P<0.01, ***P<0.001 vs Scramble.
For endothelial cell proliferation assays, TIME or HDLECs cells (50.000 and 25.000, respectively) were seeded in 6-well plates in Endothelial Cell Growth Medium (Promocell) containing 0.5% FBS. […] Results were expressed as fold increase considering day 0 as the reference. For ACHN proliferation, ACHN-LacZ, ACHN-VEGF165, ACHN-VEGF222/NF cells were seeded (20.000) in 6-well plates in DMEM medium containing 0.5% FBS. Cells were counted at day 0, 1, 3, 5 and 7. Results are expressed as fold increase considering day 0 as the reference.

[4] = ACHN cells, pLKO.1 lentiviral transduction
[5] = 786-O cells, pLKO.1 lentiviral transduction

## 5′-GCCTTTGTITTCCATTTCC-3′ (GCCTTTGTTTTCCATTTCC; chemistry not given here) [shRNA NF #1]
ACHN cells [1]
  expression of the respective target (VEGF or VEGF222/NF): downregulated the expression of their respective targets
786-O cells
  expression of the respective target (VEGF or VEGF222/NF): downregulated the expression of their respective targets

## 5′-CATITCCCTCAGATGTGACAA-3′ (CATTTCCCTCAGATGTGACAA; chemistry not given here) [shRNA NF #2]
ACHN cells [1]
  expression of the respective target (VEGF or VEGF222/NF): downregulated the expression of their respective targets
786-O cells
  expression of the respective target (VEGF or VEGF222/NF): downregulated the expression of their respective targets

## 5′-AGGGCAGAATCATCACGAAGT-3′ (expressed or natural sequence) [shRNA #2]
ACHN cells [1]; [4]
  expression of the respective target (VEGF or VEGF222/NF): downregulated the expression of their respective targets
786-O cells; [5]
  expression of the respective target (VEGF or VEGF222/NF): downregulated the expression of their respective targets

## CCN(CC)CCNC(=O)c1c(C)[nH]c(/C=C2\C(=O)Nc3ccc(F)cc32)c1C [sunitinib]
Metastatic ccRCC; High VEGF222/NF
  Death %: 83%
  OS (months): 13 months
  PFS (months): 5 months
  progression %: 83%
Metastatic ccRCC; Low VEGF222/NF
  Death %: 68%
  OS (months): 37 months
  PFS (months): 15 months
  progression %: 76%
Metastatic ccRCC; Total
  Death %: 75%
  OS (months): 33 months
  progression %: 82%
Metastatic ccRCC; Total, 47 M1 ccRCC patients
  PFS (months): 12 months

## 5′-GCGCAAGAAATCCCGGTATAA-3′ (expressed or natural sequence) [shRNA #1]
ACHN cells [1]; [4]
  expression of the respective target (VEGF or VEGF222/NF): downregulated the expression of their respective targets
786-O cells; [5]
  expression of the respective target (VEGF or VEGF222/NF): downregulated the expression of their respective targets

B1: recombinant VEGF222/NF protein produced in HEK293 cells by ProteoGenix (ligand)
chain: GSHHHHHHSGLEVLFQGPAPMAEGGGQNHHEVVKFMDVYQRSYCHPIETLVDIFQEYPDEIEYIFKPSCVPLMRCGGCCNDEGLECVPTEESNITMQIMRIKPHQGQHIGEMSFLQHNKCECRPKKDRARQENPCGPCSERRKHLFVQDPQTCKCSCKNTDSRCKARQLELNERTCSLCFPFPSDVTSRGGEPGRRKEPPSGFREPDLSPGKTDTERSIQKPRCRHHTITIDRTVLNPET
notes: also called VEGF222 New Form; rVEGF222/NF
VEGFR3
  Kd: 10.4 nM
VEGFR1
  Kd: 1.12 nM
VEGFR2
  Kd: 0.73 nM

B2: VEGF165: conventional pro-angiogenic VEGF isoform, recombinant, used as comparator (protein)
chain: APMAEGGGQNHHEVVKFMDVYQRSYCHPIETLVDIFQEYPDEIEYIFKPSCVPLMRCGGCCNDEGLECVPTEESNITMQIMRIKPHQGQHIGEMSFLQHNKCECRPKKDRARQENPCGPCSERRKHLFVQDPQTCKCSCKNTDSRCKARQLELNERTCRCDKPRR
[2]
  reddish aspect and hemoglobin content of plugs: equivalent
ACHN cells [3]
  ACHN cell proliferation: stimulated ACHN cell proliferation
